Experimental data published in paper PMC6227957, “Peptides derived from cadherin juxtamembrane region inhibit platelet function” (Royal Society Open Science, 2018).

How the values were obtained:
washed human platelets [1] = assay: Platelet ATP secretion, luminescence-based assay; type: cell-based; conditions: for Platelet ATP secretion induced by peptide alone (basal, no agonist) / Effect on TRAP-induced platelet ATP secretion: 50 µM peptide, washed human platelets; for Platelet ATP secretion induced by peptide alone (basal, no agonist): 12 min at 37°C, without TRAP, n = 6, figure 2; for Effect on TRAP-induced platelet ATP secretion: preincubated 12 min at 37°C, then 4 µM TRAP for 3 min, luminescence arb. units, figures 2, 3c,d; for Effect on TRAP-induced platelet ATP secretion, alanine scan and control peptides of KEPLLP: 12.5 µM peptide, n = 4 donors, figure 5a,b
Procedure: Washed platelets (WPs) were prepared from blood samples collected from healthy donors who were free of medications known to affect platelet function for at least 10 days, as previously described. Written, informed consent was obtained from all participants in line with the Declaration of Helsinki. In brief, venous blood was drawn into 15% (v/v) of acid-citrate-dextrose (ACD) anticoagulant (38 mM citric acid anhydrous, 75 mM sodium citrate, 124 mM dextrose). Blood was centrifuged at 150g for 10 min and the platelet-rich plasma (PRP) was collected. PRP was further centrifuged at 720g for 10 min in the presence of 1 µM prostaglandin E1 (PGE1). The platelet pellet was resuspended in buffer A (6 mM dextrose, 130 mM NaCl, 9 mM NaHCO3, 10 mM sodium citrate, 10 mM Tris base, 3 mM KCl, 0.81 mM KH2PO4 and 0.9 mM MgCl2·6H2O, pH 7.4). The washed platelet count was adjusted to 3 × 10^8 platelets ml^−1 and supplemented with 1.8 mM CaCl2 immediately prior to use.
ATP secretion was measured using a luminescence-based assay, as previously described. Peptides, buffer or vehicle control, in a final volume of 10 µl, were dispensed into white 96-well plates. To this, 70 µl of WPs were gently added. Platelets were incubated with peptides at 37°C for 12 min (under shaking) in the Perkin Elmer 1420 96-well plate reader. Platelet agonist (TRAP; 4 µM; 10 µl) was then added to induce platelet ATP secretion. The suspension (peptide + platelets + agonist) was incubated for 3 min at 37°C with constant shaking. Finally, 10 µl of ATP detecting reagent chronolume (Labmedics, UK) was dispensed into each well and luminescence was measured using the Perkin Elmer 1420 96-well plate reader. Platelet ATP secretion response to peptides was measured in the presence and absence of agonist. Data were expressed as the amount of ATP secretion in luminescence arbitrary units (arb. units). Data are represented as the mean ± standard error mean (s.e.m.) of at least four independent donors.

washed human platelets [2] = assay: Platelet ATP secretion, luminescence-based assay; type: cell-based; conditions: TRAP 0.25 to 16 µM for 3 min at 37°C; n = 4 donors; figure S1

`CCCCCCCCCCCCCCCC(=O)NCCCOCCOCCOCCCNC(=O)CCC(N)=O` [palmitic acid connected to a Ttds linker, reference compound] was tested, and the “Platelet ATP secretion induced by peptide alone (basal, no agonist)” value (washed human platelets [1]) was “no effect” and the “Effect on TRAP-induced platelet ATP secretion” value (washed human platelets [1]; n = 6 donors) was “no effect”.

For `CCCCCCCCCCCCCCCC(=O)O` [palmitic acid, reference compound], the “Platelet ATP secretion induced by peptide alone (basal, no agonist)” value (washed human platelets [1]) was “no effect” and the “Effect on TRAP-induced platelet ATP secretion” value (washed human platelets [1]; n = 6 donors) was “no effect”.

For “EEPLLP [KEPLLP with lysine replaced with glutamic acid, palmitoylated and amidated]”, the “Effect on TRAP-induced platelet ATP secretion, alanine scan and control peptides of KEPLLP” value (from here on “Effect … of KEPLLP”) (washed human platelets [1]; 4 µM TRAP) was “loss of inhibitory effect”.

In the case of “EKPLLP [N-terminus reverse charge peptide of KEPLLP, palmitoylated and amidated]”, the “Effect … of KEPLLP” value (washed human platelets [1]; 4 µM TRAP) was “retained partial inhibitory activity”.

“KEPAAP [KEPLLP with LL replaced with AA, palmitoylated and amidated]” was tested, and the “Effect … of KEPLLP” value (washed human platelets [1]; 4 µM TRAP) was “loss of peptide activity”.

“KEPLAP [KEPLLP with one leucine replaced with alanine, palmitoylated and amidated]” was tested, and the “Effect … of KEPLLP” value (washed human platelets [1]; 4 µM TRAP) was “loss of peptide activity”.

In the case of “KEPLLP [Non-palmitoylated KEPLLP, KEPLLP peptide with no palmitoylation]”, the “Effect of peptide with no palmitoylation on TRAP-induced platelet ATP secretion” value (washed human platelets [1]; 50 µM peptide for 12 min at 37°C before 4 µM TRAP, n = 4, figure S4) was “failed to inhibit”.

For “KEPLLP [short motif truncated from E-cad 2, N-terminally palmitoylated and C-terminally amidated]”, the “Effect of truncated E-cad 2 peptides on TRAP-induced platelet ATP secretion” value (washed human platelets [1]; 4 µM TRAP, n = 6 donors, figure 4a) was “most potent inhibitor” and the “Lowest peptide concentration that significantly inhibited TRAP-induced platelet ATP secretion” value (washed human platelets [1]; dose-response study, 4 µM TRAP, n = 4, figure 4b) was 12.5 µM.

“PLLPKE [randomly scrambled peptide of KEPLLP, palmitoylated and amidated]” was tested, and the “Effect … of KEPLLP” value (washed human platelets [1]; 4 µM TRAP) was “failed to inhibit”.

For SFLLRN [TRAP, reference compound], the “ATP secretion response at 4 µM TRAP relative to the maximal response” value (washed human platelets [1]; 4 µM TRAP, figure S1) was “approximately 80%” and the “TRAP concentration at which ATP secretion is maximal” value (washed human platelets [2]) was 16 µM.
